Like-named read-outs stand apart in the source and are kept apart here.
Biological target: T1, β-glucuronidase Type VII-A derived from Escherichia coli (Escherichia coli, UniProt P05804)
T1 construct: purchased Sigma-Aldrich Corporation
Assay: Inhibition of β-glucuronidase activity (PNPG substrate, absorbance at 400 nm)
Type: biochemical
Conditions: for Inhibition rate (%) Concentration 0.001%: 0.001 wt % in reaction solution
Method: 100 μL of a 2 mM PNPG aqueous solution, 40 μL of a 0.5 M phosphate buffer (pH 6.8), 38 μL of ion exchanged water and 2 μL of a 10 or 1 wt % dipropylene glycol (DPG) solution of various compounds or plant extracts were mixed in a bottle γ-ray sterilized in advance, and subsequently 20 μL of a β-glucuronidase aqueous solution adjusted to 16 units/mL was added, in order to allow the enzyme to react in a thermostat bath at 37° C. for 2 hours. Further, in the case of some of compounds, in addition to the above steps, the same experiment was performed using a 0.1 wt % DPG solution as well. As a result, the concentrations of the test compounds and plant extracts in the reaction solution were adjusted to 0.1, 0.01 and 0.001 wt %, respectively. Further, a product prepared by adding DPG in place of the above-mentioned compounds and plant extracts was used as a control, and a product prepared by adding ion exchanged water in place of an enzyme solution was used as a blank for each sample and control, and the respective products were allowed to react for 2 hours in the same manner. It should be noted that the plant extract sample was used as a solvent extract.
The above-mentioned reaction solution was diluted with a 0.2 M glycine buffer (pH 10.4) and measured for its absorbance at a wavelength of 400 nm. The relative activity inhibition rate of a β-glucuronidase was determined by using the obtained measurement value in accordance with the following equation. Absorbance change of control=Absorbance of control−Absorbance of blank for each control Absorbance change of sample=Absorbance of sample−Absorbance of blank for each sample Activity inhibition rate (%)=[(Absorbance change of control−Absorbance change of sample)/Absorbance change of control]×100

[1] = 0.01 wt % in reaction solution, 1.6 units/mL enzyme, 37° C., 2 hours, pH 6.8
[2] = 0.1 wt % in reaction solution, 1.6 units/mL enzyme, 37° C., 2 hours, pH 6.8
[3] = 0.01 wt % in reaction solution, 1.6 units/mL enzyme, 37° C., 2 hours, pH 6.8, read-out: Inhibition rate (%) Concentration 0.01%
[4] = 0.1 wt % in reaction solution, 1.6 units/mL enzyme, 37° C., 2 hours, pH 6.8, read-out: Inhibition rate (%) Concentration 0.1%
[5] = 2 h, pH 6.8, read-out: Inhibition rate (%) Concentration 0.01%
[6] = 2 h, pH 6.8, read-out: Inhibition rate (%) Concentration 0.1%
[7] = 1.6 units/mL enzyme, 37° C., 2 hours, pH 6.8

T1 sequence (P05804 whole entry): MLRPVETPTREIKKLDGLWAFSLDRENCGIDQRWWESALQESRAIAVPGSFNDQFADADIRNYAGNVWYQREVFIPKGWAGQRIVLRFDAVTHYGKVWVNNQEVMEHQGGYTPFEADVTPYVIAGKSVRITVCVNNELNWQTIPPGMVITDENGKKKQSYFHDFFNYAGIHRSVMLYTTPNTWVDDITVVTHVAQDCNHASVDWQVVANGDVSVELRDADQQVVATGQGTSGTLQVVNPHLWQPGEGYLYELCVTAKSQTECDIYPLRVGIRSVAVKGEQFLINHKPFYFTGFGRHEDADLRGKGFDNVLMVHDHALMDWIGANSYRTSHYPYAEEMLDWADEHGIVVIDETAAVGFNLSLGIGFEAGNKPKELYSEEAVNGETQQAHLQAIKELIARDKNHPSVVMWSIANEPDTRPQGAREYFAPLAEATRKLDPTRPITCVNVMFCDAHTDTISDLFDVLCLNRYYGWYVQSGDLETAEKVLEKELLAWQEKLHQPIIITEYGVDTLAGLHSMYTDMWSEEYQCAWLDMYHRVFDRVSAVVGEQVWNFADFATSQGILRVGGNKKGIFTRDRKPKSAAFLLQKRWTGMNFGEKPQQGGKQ

Compound: CC(C)=CCCC(C)CC#N (centres unmarked) [Citronellyl nitrile, citronellyl nitrile]
- Inhibition rate (%) Concentration 0.01% [1]: 41.8%
- Inhibition rate (%) Concentration 0.1% [2]: 92.4%

Compound: O=CCCc1ccccc1 [3-Phenylpropanal, 3-phenylpropanal]
- inhibition at 0.01 wt % [3]: 23.3%
- inhibition at 0.1 wt % [4]: 81.7%

Compound: CC(C)=CCCC(C)CCO (centres unmarked) [Citronellol, citronellol]
- inhibition at 0.01 wt % [3]: 47.4%
- inhibition at 0.1 wt % [4]: 76.2%

Compound: CCCCCCCCCC(C)C=O (centres unmarked) [2-Methylundecanal, 2-methylundecanal]
- inhibition at 0.01 wt % [3]: 57%
- inhibition at 0.1 wt % [4]: 62.6%

Compound: CC(C=O)Cc1ccc2c(c1)OCO2 (centres unmarked) [Helional, 2-methyl-3-(3,4-methylenedioxyphenyl)-propanal]
- inhibition at 0.01 wt % [3]: 32.4%
- inhibition at 0.1 wt % [4]: 76.4%

Compound: CCCCCC1=CCCC1=O [2-Pentylcyclopentenone, 2-pentylcyclopentenone]
- Inhibition rate (%) Concentration 0.01% [1]: 93.3%
- Inhibition rate (%) Concentration 0.1% [2]: 97.8%

Compound: CCOc1cc(C=O)ccc1O [Ethylvanillin, ethylvanillin]
- inhibition at 0.01 wt % [5]: 38.5%
- inhibition at 0.1 wt % [6]: 78.5%

Compound: CC(C)=CCCC(C)=CC=O [Citral, citral]
- inhibition at 0.01 wt % [3]: 29.1%
- inhibition at 0.1 wt % [4]: 84.1%

Compound: CC(=O)/C=C/C1C(C)=CCCC1(C)C (stereo not drawn) [α-Ionone, α-ionone]
- Inhibition rate (%) Concentration 0.01% [1]: 43.3%
- Inhibition rate (%) Concentration 0.1% [2]: 91.8%

Compound: O=C1CCCCCCCCOCCCCCCO1 [10-Oxa-16-hexadecanolide, 10-oxa-16-hexadecanolide]
- Inhibition rate (%) Concentration 0.001% [7]: 63.0%
- inhibition at 0.01 wt % [3]: 95.8%
- inhibition at 0.1 wt % [4]: 99.4%

Compound: C=CC(C)(CCC=C(C)C)OC(C)=O (centres unmarked) [Linalyl acetate, linalyl acetate]
- inhibition at 0.01 wt % [3]: 62.6%
- inhibition at 0.1 wt % [4]: 95.8%

Compound: CCC12CCC3C(C)(C)CCCC3(C)C1CCO2 (stereo not drawn) [Grisalva, 6,6,9α-trimethyl-3α-ethyldodecahydronaphtho[2,1-b]furan]
- Inhibition rate (%) Concentration 0.01% [1]: 50.4%
- Inhibition rate (%) Concentration 0.1% [2]: 77.3%

Compound: CC(=O)OCCC(C)CCC=C(C)C (centres unmarked) [Citronellyl acetate, citronellyl acetate]
- inhibition at 0.01 wt % [3]: 44.8%
- inhibition at 0.1 wt % [4]: 84.2%

Compound: CC(=O)/C=C/C1=C(C)CCCC1(C)C [β-Ionone, β-ionone]
- Inhibition rate (%) Concentration 0.01% [1]: 40.2%
- Inhibition rate (%) Concentration 0.1% [2]: 81.1%

Compound: CCC=CCCC=CC=O [2,6-Nonadienal, 2,6-nonadienal]
- inhibition at 0.01 wt % [3]: 60.9%
- inhibition at 0.1 wt % [4]: 95.2%

Compound: vetiverol
- Inhibition rate (%) Concentration 0.01% [1]: 88.0%
- Inhibition rate (%) Concentration 0.1% [2]: 97.1%

Compound: COc1ccc(C=O)cc1 [Anisaldehyde, anisaldehyde]
- inhibition at 0.01 wt % [5]: 15.3%
- inhibition at 0.1 wt % [6]: 85.9%

Compound: C=CCc1ccc(O)c(OC)c1 [Eugenol, eugenol]
- inhibition at 0.01 wt % [3]: 36.8%
- inhibition at 0.1 wt % [4]: 93.2%

Compound: CC(C=O)Cc1ccc(C(C)(C)C)cc1 (centres unmarked) [Lilial, 2-methyl-3-(4-tert-butylphenyl)-propanal]
- inhibition at 0.01 wt % [3]: 60.9%
- inhibition at 0.1 wt % [4]: 72.3%

Compound: COc1ccc(C)cc1 [p-Cresyl methyl ether, p-cresyl methyl ether]
- inhibition at 0.01 wt % [3]: 24%
- inhibition at 0.1 wt % [4]: 85.9%

Compound: CC(C)=CCC/C(C)=C\CO [Nerol, nerol]
- inhibition at 0.01 wt % [3]: 44%
- inhibition at 0.1 wt % [4]: 85.7%

Compound: CCCCCCCC1CCCC1=O (centres unmarked) [2-Heptylcyclopentanone, 2-heptylcyclopentanone]
- inhibition at 0.01 wt % [3]: 17.1%
- inhibition at 0.1 wt % [4]: 70.6%

Compound: CC1CCCCCCCCCCCCC(=O)C1 (centres unmarked) [3-Methylcyclopentadecanone, 3-methylcyclopentadecanone]
- inhibition at 0.01 wt % [3]: 57.3%
- inhibition at 0.1 wt % [4]: 86.4%

Compound: COC1CCCCCCCCCCC1 [Palisandin, 1-methoxycyclododecane]
- inhibition at 0.01 wt % [3]: 53.3%
- inhibition at 0.1 wt % [4]: 85%

Compound: C=C(C)[C@@H]1CCC2=CC(=O)C[C@@H](C)[C@]2(C)C1 [Nootkatone, nootkatone]
- inhibition at 0.01 wt % [3]: 80.8%
- inhibition at 0.1 wt % [4]: 95.2%

Compound: CC(C)c1ccc(C=O)cc1 [Cuminaldehyde, cuminaldehyde]
- inhibition at 0.01 wt % [3]: 37.8%
- inhibition at 0.1 wt % [4]: 97.1%

Compound: CC/C=C\CC1=C(C)CCC1=O [cis-Jasmone, cis-jasmone]
- Inhibition rate (%) Concentration 0.001% [7]: 24.8%
- Inhibition rate (%) Concentration 0.01% [1]: 77.2%
- Inhibition rate (%) Concentration 0.1% [2]: 99.2%

Compound: CC(=O)/C(C)=C/C1C(C)=CCCC1(C)C (centres unmarked) [γ-Methylionone, γ-methylionone]
- Inhibition rate (%) Concentration 0.001% [7]: 22.0%
- Inhibition rate (%) Concentration 0.01% [1]: 84.1%
- Inhibition rate (%) Concentration 0.1% [2]: 98.5%

Compound: CC(C)(O)CCCC1=CCC(C=O)CC1 (centres unmarked) [Lyral, 4-(4-hydroxy-4-methylpentyl)-3-cyclohexene-1-carboxyaldehyde]
- inhibition at 0.01 wt % [3]: 51.6%
- inhibition at 0.1 wt % [4]: 94.4%

Compound: CC(=O)OC(C)(C)C1CC=C(C)CC1 (centres unmarked) [Terpinyl acetate, terpinyl acetate]
- Inhibition rate (%) Concentration 0.01% [1]: 65.5%
- Inhibition rate (%) Concentration 0.1% [2]: 94.7%

Compound: C/C=C/C(=O)C1=C(C)CCCC1(C)C [β-Damascone, β-damascone]
- Inhibition rate (%) Concentration 0.01% [1]: 39.5%
- Inhibition rate (%) Concentration 0.1% [2]: 77.3%

Compound: CCC(=O)/C=C/C1C(C)=CCCC1(C)C (stereo not drawn) [α-Methylionone, α-methylionone]
- Inhibition rate (%) Concentration 0.01% [1]: 57.5%
- Inhibition rate (%) Concentration 0.1% [2]: 91.1%

Compound: COc1cc(C=O)ccc1O [Vanillin, vanillin]
- inhibition at 0.01 wt % [3]: 49.5%
- inhibition at 0.1 wt % [4]: 82.1%

Compound: CC1=CC[C@H](C(C)C)C=C1 (racemic) [α-Phellandrene, α-phellandrene]
- Inhibition rate (%) Concentration 0.01% [1]: 50.0%
- Inhibition rate (%) Concentration 0.1% [2]: 93.6%

Compound: C/C=C\C(=O)C1C(C)=CCCC1(C)C (stereo not drawn) [α-Damascone, α-damascone]
- Inhibition rate (%) Concentration 0.01% [1]: 42.6%
- Inhibition rate (%) Concentration 0.1% [2]: 89.9%

Compound: O=C1CCCCCCCCCOCCCCCO1 [11-Oxa-16-hexadecanolide, 11-oxa-16-hexadecanolide]
- inhibition at 0.01 wt % [3]: 26.8%
- inhibition at 0.1 wt % [4]: 62.8%

Compound: COC1(C)CCCCCCCCCCC1 [Madrox, 1-methyl-1-methoxycyclododecane]
- inhibition at 0.01 wt % [3]: 60.9%
- inhibition at 0.1 wt % [4]: 92.4%

Compound: CC1=CCCC2(C)OC2CCC(C)=CCC1 (centres unmarked) [Cedroxide, 4,8,12-trimethyl-13-oxabicyclo-[10.1.0]trideca-4,8-diene]
- inhibition at 0.01 wt % [3]: 40.1%
- inhibition at 0.1 wt % [4]: 82.6%

Compound: O=C1CCCCCCCCCCCCCC1 [Cyclopentadecanone, cyclopentadecanone]
- inhibition at 0.01 wt % [3]: 35.6%
- inhibition at 0.1 wt % [4]: 73.3%

Compound: O=CCCC=C1CC2CC1C1CCCC21 (centres unmarked) [Dupical, 4-(tricyclo[5.2.1.0^2,6]decylidene-8)butenal]
- Inhibition rate (%) Concentration 0.01% [1]: 65.5%
- Inhibition rate (%) Concentration 0.1% [2]: 73.5%

Compound: OC/C=C/c1ccccc1 [Cinnamic alcohol, cinnamic alcohol]
- inhibition at 0.01 wt % [5]: 56.2%
- inhibition at 0.1 wt % [6]: 93.5%

Compound: Cc1ccc2c(c1)OCC(=O)CO2 [Calone, 7-methyl-3,4-dihydro-(2H)-1,5-benzodioxepin-3-one]
- inhibition at 0.01 wt % [3]: 17.3%
- inhibition at 0.1 wt % [4]: 73.3%

Compound: CC(C)=CCCC1=CCC(C=O)CC1 (centres unmarked) [Myrac aldehyde, 4-(4-methyl-3-pentenyl)-3-cyclohexene-1-carboxyaldehyde]
- Inhibition rate (%) Concentration 0.01% [1]: 49.7%
- Inhibition rate (%) Concentration 0.1% [2]: 63.7%

Compound: O=C1CCCCCCCC=CCCCCCCC1 [9-Cycloheptadecen-1-one, 9-cycloheptadecen-1-one]
- Inhibition rate (%) Concentration 0.001% [7]: 95.8%
- inhibition at 0.01 wt % [3]: 96.3%
- inhibition at 0.1 wt % [4]: 100%
